In one assay the test system is HIV-1 subtype A strain 12RU 69831. Description: Inhibition of HIV-1 reproduction / protection of infected MT-4 cells (living cell concentration, p24 production). Particulars: Human immunodeficiency virus 1, MT4, MT-4 cells infected with HIV-1 at a constant virus dose of 300 CCID50; read-out: Activity against HIV-1 12RU 69831 strain (subtype A). It is filed as cell-based. On the procedure:
Evaluation of HIV reproduction inhibition/protection of human cells by anti-HIV products of the present invention was conducted by measuring change in living cells concentration in experimental wells with MT-4 cells infected with HIV-1, as well as by the production of viral protein p24 with adding different concentrations of compounds according to the present invention. Antiviral activity of products against HIV-1 subtype A strain 12RU 69831 was determined, when the cell culture was infected with a constant dose of virus, corresponding to 300 CCID50.
As to `Cc1cccc(C)c1Oc1nc(Nc2ccc(C#N)cc2)nc2c1CCN(Cc1ccccc1)C2` [BB0273459], the IC50 worked out at 74.3 µM.

Consider `Cc1cc(C#N)cc(C)c1Oc1nc(Nc2ccc(C#N)cc2)nc2c1CCN(C)C2` [BB0273774, 4-((2-((4-Cyanophenyl)amino)-7-methyl-5,6,7,8-tetrahydropyrido[3,4-d]pyrimidine-4-yl)oxy)-3,5-dimethylbenzonitrile], for which the IC50 was determined as 224 µM.

Regarding `Cc1cc(C=O)cc(C)c1Oc1nc(Nc2ccc(C#N)cc2)nc2c1CCN(C)C2` [BB0273775, 4-((4-(4-Formyl-2,6-dimethylphenoxy)-7-methyl-5,6,7,8-tetrahydro[3,4-d]pyrimidine-2-yl)amino)benzonitrile], the IC50 came out at 295 µM.

Consider `Cc1cc(C2OCCCO2)cc(C)c1Oc1nc(Nc2ccc(C#N)cc2)nc2c1CCN(C(=O)OC(C)(C)C)CC2` [BB0273892], for which the IC50 stood at 1220 µM.

For `Cc1cc(C=O)cc(C)c1Oc1nc(Nc2ccc(C#N)cc2)nc2c1CCN(C(=O)OC(C)(C)C)CC2` [BB0273943, Tert-butyl 2-((4-cyanophenyl)amino)-4-(4-formyl-2,6-dimethylphenyoxy)-8,9-dihydro-5H-pyrimido[4,5-d]azepine-7(6H)-carboxylate], the IC50 was found to be 346 µM.

Consider `Cc1cc(C#N)cc(C)c1Oc1nc(Nc2ccc(C#N)cc2)nc2c1CN(C(=O)OC(C)(C)C)CC2` [BB0273961, Tert-butyl 4-(4-cyano-2,6-dimethylphenoxy)-2-((4-cyanophenyl)amino)-7,8-dihydropyrido[4,3-d]pyrimidine-6(5H)-carboxylate], for which the IC50 is 42.3 µM.

For `Cc1cc(C#N)cc(C)c1Oc1nc(Nc2ccc(C#N)cc2)nc2c1CNCC2` [BB0273963, 4-((2-((4-Cyanophenyl)amino)-5,6,7,8-tetrahydropyrido[4,3-d]pyrimidine-4-yl)oxy)-3,5-dimethylbenzonitrile], the IC50 was 7.56 µM.

On to `Cc1cc(C#N)cc(C)c1Oc1nc(Nc2ccc(C#N)cc2)nc2c1CN(S(C)(=O)=O)CC2` [BB0273964, 4-((2-((4-Cyanophenyl)amino)-6-(methylsulfonyl)-5,6,7,8-tetrahydropyrido[4,3-d]pyrimidine-4-yl)oxy)-3,5-dimethylbenzonitrile], for which the IC50 turned out to be 0.145 µM.

With `CCOC(=O)N1CCc2nc(Nc3ccc(C#N)cc3)nc(Oc3c(C)cc(C#N)cc3C)c2C1` [BB0273965, Ethyl 4-(4-cyano-2,6-dimethylphenoxy)-2-((4-cyanophenyl)amino)-7,8-dihydropyrido[4,3-d]pyrimidine-6(5H)-carboxylate], the IC50 stood at 1.73 µM.

`Cc1cc(/C=C/C(=O)O)cc(C)c1Oc1nc(Nc2ccc(C#N)cc2)nc2c1CCN(C(=O)OC(C)(C)C)CC2` [BB0273969, (E)-3-(4-((7-(Tert-butoxycarbonyl)-2-((4-cyanophenyl)amino)-6,7,8,9-tetrahydro-5H-pyrimido[4,5-d]azepine-4-yl)oxy)-3,5-dimethylphenyl)acrylic acid]: the IC50 was determined as 10700 µM.

For `Cc1cc(C#N)cc(C)c1Oc1nc(Nc2ccc(C#N)cc2)nc2c1CCN(C(=O)OC(C)(C)C)CC2` [BB0273972, Tert-butyl 4-(4-cyano-2,6-dimethylphenoxy)-2-((4-cyanophenyl)amino)-8,9-dihydro-5H-pyrimido[4,5-d]azepine-7(6H)-carboxylate], the IC50 was determined as 117 µM.

For `Cc1cc(/C=C/C#N)cc(C)c1Oc1nc(Nc2ccc(C#N)cc2)nc2c1CCN(C(=O)OC(C)(C)C)CC2` [BB0274009, Tert-butyl 2-((4-cyanophenyl)amino)-4-(4-(2-cyanovinyl)-2,6-dimethylphenoxy)-8,9-dihydro-5H-pyrimido[4,5-d]azepine-7(6H)-carboxylate], the IC50 is 291 µM.

Take `Cc1cc(C#N)cc(C)c1Oc1nc(Nc2ccc(C#N)cc2)nc2c1CCN(C(=O)c1ccccn1)CC2` [BB0274010, 4-((2-((4-Cyanophenyl)amino)-7-picolynoyl-6,7,8,9-tetrahydro-5H-pyrimido[4,5-d]azepine-4-yl)oxy)-3,5-dimethylbenzonitrile]: the IC50 is 0.062 µM.

Turning to `Cc1cc(C#N)cc(C)c1Oc1nc(Nc2ccc(C#N)cc2)nc2c1CCN(C(=O)c1ccncc1)CC2` [BB0274011, 4-((2-((4-Cyanophenyl)amino)-7-isonicotinoyl-6,7,8,9-tetrahydro-5H-pyrimido[4,5-d]azepine-4-yl)oxy)-3,5-dimethylbenzonitrile], the IC50 amounted to 27.1 µM.

With `Cc1cc(C#N)cc(C)c1Oc1nc(Nc2ccc(C#N)cc2)nc2c1CCN(C(=O)c1cccnc1)CC2` [BB0274012, 4-((2-((4-Cyanophenyl)amino)-7-nicotinoyl-6,7,8,9-tetrahydro-5H-pyrimido[4,5-d]azepine-4-yl)oxy)-3,5-dimethylbenzonitrile], the IC50 stood at 5.81 µM.

`Cc1cc(C#N)cc(C)c1Oc1nc(Nc2ccc(C#N)cc2)nc2c1CCN(Cc1ccccn1)CC2` [BB0274014, 4-((2-((4-Cyanophenyl)amino)-7-(pyridine-2-ylmethyl)-6,7,8,9-tetrahydro-5H-pyrimido[4,5-d]azepine-4-yl)oxy)-3,5-dimethylbenzonitrile]: the IC50 amounted to 5.98 µM.

`Cc1cc(C#N)cc(C)c1Oc1nc(Nc2ccc(C#N)cc2)nc2c1CCN(Cc1cccnc1)CC2` [BB0274015, 4-((2-((4-Cyanophenyl)amino)-7-(pyridine-3-ylmethyl)-6,7,8,9-tetrahydro-5H-pyrimido[4,5-d]azepine-4-yl)oxy)-3,5-dimethylbenzonitrile]: the IC50 stood at 29.9 µM.

Take `Cc1cc(C#N)cc(C)c1Oc1nc(Nc2ccc(C#N)cc2)nc2c1CCN(Cc1ccncc1)CC2` [BB0274016, 4-((2-((4-Cyanophenyl)amino)-7-(pyridine-4-ylmethyl)-6,7,8,9-tetrahydro-5H-pyrimido[4,5-d]azepine-4-yl)oxy)-3,5-dimethylbenzonitrile]: the IC50 is 4880 µM.

Regarding `Cc1cc(C#N)cc(C)c1Oc1nc(Nc2ccc(C#N)cc2)nc2c1CCNCC2` [BB0274021, 4-((2-((4-Cyanophenyl)amino)-6,7,8,9-tetrahydro-5H-pyrimido[4,5-d]azepine-4-yl)oxy)-3,5-dimethylbenzonitrile], the IC50 was found to be 0.0102 µM.

Consider `Cc1cc(C#N)cc(C)c1Oc1nc(Nc2ccc(C#N)cc2)nc2c1CCN(C(=O)C1CCN(C(=O)OC(C)(C)C)CC1)CC2` [BB0274025, Tert-butyl 4-(4-(4-cyano-2,6-dimethylphenoxy)-2-((4-cyanophenyl)amino)-6,7,8,9-tetrahydro-5H-pyrimido[4,5-d]asein-7-carbonyl)piperidine-1-carboxylate], for which the IC50 was found to be 3220 µM.

In the case of `Cc1cc(C#N)cc(C)c1Oc1nc(Nc2ccc(C#N)cc2)nc2c1CCN(C(=O)C1CCNCC1)CC2` [BB0274026, 4-((2-((4-Cyanophenyl)amino)-7-(piperidine-4-carbonyl)-6,7,8,9-tetrahydro-5H-pyrimido[4,5-d]azepine-4-yl)oxy)-3,5-dimethylbenzonitrile], the IC50 was 0.364 µM.

Consider `Cc1cc(C#N)cc(C)c1Oc1nc(Nc2ccc(C#N)cc2)nc2c1CCN(C1CCN(C(=O)OC(C)(C)C)CC1)CC2` [BB0274027, Tert-butyl 4-(4-(4-cyano-2,6-dimethylphenoxy)-2-((4-cyanophenyl)amino)-8,9-dihydro-5H-pyrimido[4,5-d]azepine-7(6H)-yl)piperidine-1-carboxylate], for which the IC50 was 37 µM.

On to `Cc1cc(C#N)cc(C)c1Oc1nc(Nc2ccc(C#N)cc2)nc2c1CCN(C1CCNCC1)CC2` [BB0274028, 4-((2-((4-Cyanophenyl)amino)-7-(piperidine-4-yl)-6,7,8,9-tetrahydro-5H-pyrimido[4,5-d]azepine-4-yl)oxy)-3,5-dimethylbenzonitrile], for which the IC50 was 16.2 µM.

Turning to `Cc1cc(C#N)cc(C)c1Oc1nc(Nc2ccc(C#N)cc2)nc2c1CN(C(=O)CN)CC2` [BB0274051, 4-((6-(2-Aminoacetyl)-2-((4-cyanophenyl)amino)-5,6,7,8-tetrahydropyrido[4,3-d]pyrimidine-4-yl)oxy)-3,5-dimethylbenzonitrile], the IC50 is 0.00552 µM.

Turning to `Cc1cc(C#N)cc(C)c1Oc1nc(Nc2ccc(C#N)cc2)nc2c1CN(C(=O)CN1CC(O)C1)CC2` [BB0274052, 4-((2-((4-Cyanophenyl)amino)-6-(2-(3-hydroxyazetidine-1-yl)acetyl)-5,6,7,8-tetrahydropyrido[4,3-d]pyrimidine-4-yl)oxy)-3,5-dimethylbenzonitrile], the IC50 was found to be 0.127 µM.

On to `Cc1cc(C#N)cc(C)c1Oc1nc(Nc2ccc(C#N)cc2)nc2c1CCN(C(=O)C1CCCN1C(=O)OC(C)(C)C)CC2` (centres unmarked) [BB0274063, Tert-butyl 2-(4-(4-cyano-2,6-dimethylphenoxy)-2-((cyanophenyl)amino)-6,7,8,9-tetrahydro-5H-pyrimido[4,5-d]azepine-7-carbonyl)pyrrolidine-1-carboxylate], for which the IC50 came out at 230 µM.

On to `Cc1cc(C#N)cc(C)c1Oc1nc(Nc2ccc(C#N)cc2)nc2c1CCN(C(=O)[C@H]1CCCN1C(=O)OC(C)(C)C)CC2` [BB0274064, (R)-Tert-butyl 2-(4-(4-cyano-2,6-dimethylphenoxy)-2-((cyanophenyl)amino)-6,7,8,9-tetrahydro-5H-pyrimido[4,5-d]azepine-7-carbonyl)pyrrolidine-1-carboxylate], for which the IC50 worked out at 493 µM.

Consider `Cc1cc(C#N)cc(C)c1Oc1nc(Nc2ccc(C#N)cc2)nc2c1CCN(C(=O)[C@@H]1CCCN1C(=O)OC(C)(C)C)CC2` [BB0274065, (S)-Tert-butyl 2-(4-(4-cyano-2,6-dimethylphenoxy)-2-((cyanophenyl)amino)-6,7,8,9-tetrahydro-5H-pyrimido[4,5-d]azepine-7-carbonyl)pyrrolidine-1-carboxylate], for which the IC50 turned out to be 41.1 µM.

The same assay, now with this note: MT-4 cells infected with HIV-1 at a constant virus dose of 300 CCID50; read-out: Activity against HIV-1 12RU 69831 strain (subtype A).
For `Cc1cc(C#N)cc(C)c1Oc1nc(Nc2ccc(C#N)cc2)nc2c1CCNCC2` [BB0273976, 4-((2-((4-Cyanophenyl)amino)-6,7,8,9-tetrahydro-5H-pyrimido[4,5-d]azepine-4-yl)oxy)-3,5-dimethylbenzonitrile], the IC50 came to 0.00583 µM.

Source of the values: patent US12485121B2, “Antiviral agents for the treatment and prevention of HIV infection” (Pharmasyntez, Joint Stock Company, priority 2020, dated 2025).
